Among the data in paper PMC6332289, “Anti-Oxidant, Anti-Aging, and Anti-Melanogenic Properties of the Essential Oils from Two Varieties of Alpinia zerumbet” (Molecules, 2015) are IC50 values, retold here.

Converted amounts (≈) assume the structure as drawn.

The target in this assay is T1, Clostridium histolyticum collagenase (ChC).
T1 construct: gene colG; commercial collagenase from Sigma-Aldrich
Nature of the assay: FALGPA hydrolysis, absorbance at […] nm. The class given is biochemical, Hathewaya histolytica. As to conditions: 50 mM tricine, 400 mM NaCl, 10 mM CaCl2, pH 7.5; 0.8 mM FALGPA; 15 min preincubation.

`CC1(C)CC[C@]2(C(=O)O)CC[C@]3(C)C(=CC[C@@H]4[C@@]5(C)CC[C@H](O)C(C)(C)[C@@H]5CC[C@]43C)[C@@H]2C1` [oleanolic acid] yielded an IC50 of 21 ± 0.2 mg/L (≈ 46 µM).

In general, IC50 refers to the concentration that gives 50% inhibition. Read a high IC50 as weaker potency in that assay.
